In the CheMixHub viscosity set:

Experiment: xn = mol fraction of the nth substance listed
Conditions: 101 kPa

CCOC(C)(C)C + COCCO
viscosity [mPa·s]
Conditions	293.15 K	298.15 K	303.15 K
x1 = 0.0501	1.598	1.452	1.327
x1 = 0.1	1.493	1.361	1.246
x1 = 0.1508	1.386	1.267	1.164
x1 = 0.2	1.291	1.183	1.089
x1 = 0.2512	1.198	1.1	1.015
x1 = 0.299	1.118	1.029	0.951
x1 = 0.3489	1.041	0.961	0.89
x1 = 0.4	0.971	0.898	0.834
x1 = 0.4503	0.909	0.842	0.784
x1 = 0.499	0.854	0.793	0.74
x1 = 0.55	0.803	0.748	0.7
x1 = 0.61	0.75	0.7	0.657
x1 = 0.6599	0.711	0.665	0.625
x1 = 0.7	0.682	0.639	0.602
x1 = 0.7511	0.649	0.61	0.575
x1 = 0.8	0.621	0.584	0.552
x1 = 0.8489	0.595	0.561	0.532
x1 = 0.9	0.571	0.54	0.512
x1 = 0.949	0.55	0.521	0.495

CCS(=O)CC + CCC#N
viscosity [mPa·s]
Conditions	x1 = 0.0998	x1 = 0.2002	x1 = 0.2962	x1 = 0.3999	x1 = 0.4953	x1 = 0.6017	x1 = 0.6937	x1 = 0.7999	x1 = 0.8998
298.15 K	0.53	0.63	0.73	0.89	1.05	1.26	1.45	1.74	1.98
303.15 K	0.49	0.59	0.69	0.83	0.96	1.15	1.35	1.56	1.84
308.15 K	0.46	0.55	0.64	0.78	0.89	1.06	1.25	1.41	1.68
313.15 K	0.44	0.54	0.61	0.74	0.85	0.99	1.14	1.32	1.52
318.15 K	0.42	0.5	0.59	0.69	0.78	0.92	–	1.21	1.39
323.15 K	0.36	0.43	0.51	0.59	0.67	0.79	0.91	1.02	1.17
